In paper PMC5992992, “Functional Consequences of the Postnatal Switch From Neonatal to Mutant Adult Glycine Receptor α1 Subunits in the Shaky Mouse Model of Startle Disease” (Frontiers in Molecular Neuroscience, 2018):

Tests used:
[1] = target: T1, glycine receptor α1 subunit (GlyR α1) (Mus musculus, UniProt Q64018); assay: whole-cell patch-clamp dose-response of bath-applied glycine in brain stem slices
T1 construct: gene Glra1; native GlyRs in hypoglossal motoneurons of brain stem slices (Glra1+/+, P18-24); with GlyR β subunit (Glrb)

[2] = target: T2, glycine receptor α1 subunit (GlyR α1 Q177K, shaky) (Mus musculus, UniProt Q64018, Q205K); assay: as above
T2 construct: gene Glra1; native GlyRs in hypoglossal motoneurons of brain stem slices (Glra1sh/sh, P18-24); with GlyR β subunit (Glrb)

In the case of `NCC(=O)O` [glycine], the EC50 [1] is reported as 277 µM and the EC50 [2] is reported as 384 µM.
